Assay results reported in patent publication US7569547B2, “Inhibiting furin with polybasic peptides” (Board of Supervisors of Louisiana State University and …, priority 2001, dated 2009).

What was measured:
PC1 = target: T1, PC1 (Mus musculus, UniProt P63239); test: biochemical; format: biochemical
T1 construct: made in house
T1 sequence (P63239 111-753): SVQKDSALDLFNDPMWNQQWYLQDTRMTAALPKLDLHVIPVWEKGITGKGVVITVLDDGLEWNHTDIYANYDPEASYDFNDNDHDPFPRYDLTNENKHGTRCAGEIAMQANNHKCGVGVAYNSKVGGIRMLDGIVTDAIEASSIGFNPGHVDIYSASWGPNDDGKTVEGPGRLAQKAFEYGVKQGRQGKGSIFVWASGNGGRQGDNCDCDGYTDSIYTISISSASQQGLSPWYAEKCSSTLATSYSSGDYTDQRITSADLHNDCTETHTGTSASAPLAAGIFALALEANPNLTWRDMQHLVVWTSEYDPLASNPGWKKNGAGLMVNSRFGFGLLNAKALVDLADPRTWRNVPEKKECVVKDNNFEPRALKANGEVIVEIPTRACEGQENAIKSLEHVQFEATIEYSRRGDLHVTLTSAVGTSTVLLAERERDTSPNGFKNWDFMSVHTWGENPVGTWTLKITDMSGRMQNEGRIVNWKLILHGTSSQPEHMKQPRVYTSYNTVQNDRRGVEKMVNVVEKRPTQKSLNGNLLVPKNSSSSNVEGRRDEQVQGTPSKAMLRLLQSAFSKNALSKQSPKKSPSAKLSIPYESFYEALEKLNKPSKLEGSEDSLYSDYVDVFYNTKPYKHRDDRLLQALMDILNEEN
Procedure: The proprotein convertases PC1 and PC2 were prepared by ion exchange chromatography as described in G. Frenette et al., Biochim. Biophys. Acta., vol. 1334, pp. 109-115 (1997).
(§1) Enzyme Assays and Hexapeptide Library Screening. Enzyme assays for PC1 and PC2 were performed at pH 5.0 using pERTKR-MCA (Peptides International Inc., Louisville, Ky.) as described in E. Apletalina et al., J. Biol. Chem., vol. 273, pp. 26589-26595 (1998). The assay for furin was performed using the same substrate at pH 7.0 in 100 mM HEPES, 5 mM CaCl2, 0.1% Brij 35. All assays were performed at 37° C. in a 96 well fluorometer (Labsystems) at an excitation wavelength of 380 nm with emission monitored at a wavelength of 460 nm. The total volume was 50 μL. Unless otherwise stated, the final substrate concentration for all assays was 200 μM. When used in a particular experiment, the inhibitory peptides were pre-incubated with enzyme for 30 min at room temperature prior to addition of substrate. All assays were performed in duplicate or triplicate.

recombinant mouse furin = target: T2, recombinant mouse furin (Mus musculus, UniProt P23188); test: Furin enzyme assay, hydrolysis of pERTKR-MCA at pH 7.0; format: biochemical; settings: for type of inhibition of furin (Lineweaver-Burk plots): furin 30 nM, 0, 20 or 40 μM hexapeptide, polyarginines forty-fold lower
T2 construct: truncated N-terminally to the transmembrane domain at His^711 using PCR; myc (C, cleaved yes); hexa-His (C, cleaved yes); made in house; host or cells: DG44 CHO cells, conditioned medium
Excerpt: Recombinant convertase preparation. The mouse furin clone was a kind gift from K. Nakayama (Fukuoka University School of Medicine, Fukuoka, Japan). The mouse furin cDNA was truncated N-terminally to the transmembrane domain at His^711 using PCR. This PCR product was then subcloned into pcDNA3.1 (−) myc-His (Invitrogen) at the Nhe1 and Xba1 restriction sites. Dihydrofolate-reductase-negative DG44 Chinese Hamster Ovary (CHO) cells (L. Chasin, Columbia University, New York, N.Y.) were transfected using Lipofectin (Life Technologies), and colonies were selected at 37° C. in 5% CO2 in α-MEM (lacking nucleosides) containing 10% well-dialyzed fetal bovine serum (Life Technologies). Conditioned media from colonies were screened using an enzyme assay (see below), and a high-expressing clone was selected. Overexpression of furin was achieved by increasing the methotrexate concentration from 5 nM to 50 μM in five- to ten-fold steps as described in I. Lindberg et al., Methods Neurosci., vol. 23, pp. 94-108 (1995). The amplified lines were tested for increased furin expression by enzyme assay. Once the 50 μM methotrexate level had been reached, cells were split at ratios of 1:6 twice a week. 100 mL of conditioned media (OptiMEM, Life Technologies) containing 100 μg/mL aprotinin (Miles Laboratories, Kankakee, Ill.) was collected from confluent roller bottles every 24 h. The medium was then centrifuged at low speed to remove cells, and the supernatant was stored at −80° C. until use.
Purification of furin: Conditioned medium was thawed, pooled, and diluted 1:3.5 with buffer A (20 mM HEPES, 0.1% Brij 35, 5 mM CaCl2, pH 7.4), and pumped at 40 mL/min through a Sartorius D100 anion exchange membrane. The membrane was washed with 40 mL of buffer A, followed by 40 mL of buffer A containing 50 mM NaCl, and finally by 40 mL of buffer A containing 200 mM NaCl. The fraction eluting with 200 mM NaCl was diluted 1:4 with buffer A and applied to a 1 mL Pharmacia Mono Q HR5/5 anion exchange column at a flow rate of 1 mL/min. Following a 10 mL wash with buffer A, furin was eluted by a linear increase of 0 to 500 mM NaCl in buffer A over 30 mL; and 2 mL fractions were collected. Fractions containing peak activity were pooled, and 200 μL aliquots were subjected to gel permeation chromatography using a Pharmacia Superose 12 column at a flow rate of 0.5 mL/min of buffer A containing 200 mM NaCl. Fractions were assayed for activity as described below; protein content was determined using the Bradford method. All purification steps were performed at 4° C.
as §1

T2 sequence (P23188 108-714 limits assumed): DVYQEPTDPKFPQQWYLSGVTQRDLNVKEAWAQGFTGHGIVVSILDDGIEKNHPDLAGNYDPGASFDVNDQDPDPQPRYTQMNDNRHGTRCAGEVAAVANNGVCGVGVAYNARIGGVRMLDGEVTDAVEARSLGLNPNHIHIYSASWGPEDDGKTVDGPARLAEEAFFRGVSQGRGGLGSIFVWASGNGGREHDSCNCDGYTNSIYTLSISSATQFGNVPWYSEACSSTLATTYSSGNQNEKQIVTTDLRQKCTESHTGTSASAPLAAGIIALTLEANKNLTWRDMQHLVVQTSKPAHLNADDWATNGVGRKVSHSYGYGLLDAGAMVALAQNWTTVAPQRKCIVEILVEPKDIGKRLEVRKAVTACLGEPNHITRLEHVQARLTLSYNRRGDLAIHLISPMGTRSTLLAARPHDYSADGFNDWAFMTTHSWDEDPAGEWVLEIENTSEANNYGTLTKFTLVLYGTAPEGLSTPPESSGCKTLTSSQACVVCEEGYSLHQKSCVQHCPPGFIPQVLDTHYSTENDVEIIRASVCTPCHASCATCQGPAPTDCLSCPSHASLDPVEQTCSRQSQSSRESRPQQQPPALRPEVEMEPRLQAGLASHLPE

Structure (SMILES)	Ki (PC1)	type of inhibition of furin (Lineweaver-Burk plots) (recombinant mouse furin)	Ki (recombinant mouse furin)
N=C(N)NCCC[C@@H](NC(=O)[C@H](N)CCCN=C(N)N)C(=O)N[C@H](CCCNC(=N)N)C(=O)N[C@H](CCCNC(=N)N)C(=O)N[C@H](CCCNC(=N)N)C(=O)N[C@H](CCCN=C(N)N)C(=O)O [Hexa-D-arginine]	13 ± 0.25 µM	strictly competitive-type inhibition	
N=C(N)NCCC[C@H](NC(=O)[C@H](CCCNC(=N)N)NC(=O)[C@H](CCCNC(=N)N)NC(=O)[C@H](CCCNC(=N)N)NC(=O)[C@H](CCCNC(=N)N)NC(=O)[C@@H](N)CCCNC(=N)N)C(=O)O [Hexa-L-arginine]	3.9 ± 0.62 µM	strictly competitive-type inhibition	
N=C(N)NCCC[C@H](NC(=O)[C@H](CCCNC(=N)N)NC(=O)[C@H](CCCNC(=N)N)NC(=O)[C@H](CCCNC(=N)N)NC(=O)[C@H](CCCNC(=N)N)NC(=O)[C@H](CCCNC(=N)N)NC(=O)[C@H](CCCNC(=N)N)NC(=O)[C@H](CCCNC(=N)N)NC(=O)[C@@H](N)CCCNC(=N)N)C(=O)O [Nona-L-arginine]	12 ± 2.5 µM	strictly competitive-type inhibition	0.042 µM
